# Test results published in US20090264447A1, “Pyrimidine compounds for combating pathogenic fungi and cancer” (BASF SE, priority 2006, published 2009).
# System: HeLa B cells
# Experiment: Cell cycle inhibition in HeLa cells (FACS, G0/G1 to G2/M ratio)
# Type: cell-based
# Settings: read-out: IC50 (concentration at which 50% of the cells are inhibited in their cell cycle), 20 h incubation with compound
# Description: HeLa B cells were cultivated in DMEM (Life Technologies Cat. No. 21969-035) containing fetal calf serum (FCS, Life Technologies Cat. No. 10270-106) in 180 cm^2 containers at 37° C., 92% humidity and 7% CO2.
# 5×10^4 cells per well were added into a 24-well plate. After 20 h, the compounds to be tested were added such that the final concentration was 1×10^−6, 3.3×10^−7, 1.1×10^−7, 3.7×10^−8, 1.2×10^−8 and 1×10^−9 M in a final volume of 500 μl. 6 wells contained only DMSO as control. The treated cells were incubated as described above for a further 20 h. The cells were then examined under the microscope for dead cells. The 24-well plate was then centrifuged at 1200 rpm at 20° C., an acceleration in position 7 and the brake position 5 (Eppendorf centrifuge 5804R) for 5 min.
# The supernatant was removed and the cells were lysed with 0.5 ml of RNase buffer (10 mM sodium citrate, 0.1% Nonidet NP40, 50 μg/ml RNase, 10 μg/ml propidium iodide) per well. The plates were then incubated at room temperature in the dark for at least 30 min, and the samples were then transferred into FACS tubes. These were measured in an FACS instrument (Beckton Dickinson) with the following settings:
# Instrument settings at the FACS Calibur:
# The ratio of cells in the G0/G1 phase to those in the G2/M phase was calculated and compared to the value for the control (DMSO).
row,Compound,IC50
1,CON=C(N)c1nc(Cl)c(-c2c(F)cc(OCCCN(C)C)cc2F)c(N2CCC(C)CC2)n1 [Example 2],27 nM
2,COCCCOc1cc(F)c(-c2c(Cl)nc(C(N)=NOC)nc2NC(C)C(C)(C)C)c(F)c1 (stereo not drawn) [Example 7],56 nM
3,CC1CCN(c2nc(-n3cccn3)nc(Cl)c2-c2c(F)cc(OCCCN(C)C(=O)OC(C)(C)C)cc2F)CC1 [Example 11],570 nM
4,CC1CCN(c2nc(-n3cccn3)nc(Cl)c2-c2c(F)cc(OCCCOc3cc(Cl)ncn3)cc2F)CC1 [Example 12],470 nM
5,COCCCOc1cc(F)c(-c2c(Cl)nc(-n3cccn3)nc2NC(C)C(C)(C)C)c(F)c1 (stereo not drawn) [Example 15],32 nM
6,COCCCOc1cc(F)c(-c2c(Cl)nc(-n3cccn3)nc2NC(C)C(C)C)c(F)c1 (stereo not drawn) [Example 16],26 nM
7,COCCCOc1cc(F)c(-c2c(Cl)nc(-n3ccnn3)nc2NC(C)C(C)C)c(F)c1 (stereo not drawn) [Example 17],32 nM
8,COCCCOc1cc(F)c(-c2c(Cl)nc(-n3ccnn3)nc2NC(C)C(C)(C)C)c(F)c1 (stereo not drawn) [Example 18],29 nM
9,COCCCOc1cc(F)c(-c2c(Cl)nc(-n3nccn3)nc2NC(C)C(C)C)c(F)c1 (stereo not drawn) [Example 19],26 nM
10,COCCCOc1cc(F)c(-c2c(Cl)nc(-n3nccn3)nc2NC(C)C(C)(C)C)c(F)c1 (stereo not drawn) [Example 20],27 nM
11,CNCCCOc1cc(F)c(-c2c(Cl)nc(-n3cncn3)nc2N2CCC(C)CC2)c(F)c1 [Example 21],18 nM
12,CC1CCN(c2nc(-n3cncn3)nc(Cl)c2-c2c(F)cc(OCCCN(C)C(=O)OC(C)(C)C)cc2F)CC1 [Example 22],290 nM
13,CC1CCN(c2nc(-n3cncn3)nc(Cl)c2-c2c(F)cc(OCCCOc3cc(Cl)ncn3)cc2F)CC1 [Example 23],330 nM
14,COCCCOc1cc(F)c(-c2c(Cl)nc(-n3cncn3)nc2NC(C)C(C)(C)C)c(F)c1 (stereo not drawn) [Example 24],42 nM
15,COCCCOc1cc(F)c(-c2c(Cl)nc(-n3cncn3)nc2NC(C)C(C)C)c(F)c1 (stereo not drawn) [Example 25],42 nM
16,CC1CCN(c2nc(C#N)nc(Cl)c2-c2c(F)cc(OCCCN(C)C)cc2F)CC1 [Example 27],220 nM
17,COCCCOc1cc(F)c(-c2c(Cl)nc(C#N)nc2N2CCC(C)CC2)c(F)c1 [Example 31],120 nM
18,CC1CCN(c2nc(C#N)nc(Cl)c2-c2c(F)cc(OCCCOc3cc(Cl)ncn3)cc2F)CC1 [Example 32],570 nM
19,CNCCCOc1cc(F)c(-c2c(Cl)nc(C#N)nc2N2CCCCCC2)c(F)c1 [Example 33],480 nM
20,COCCCOc1cc(F)c(-c2c(Cl)nc(C#N)nc2NC(C)C(C)(C)C)c(F)c1 (stereo not drawn) [Example 35],190 nM
21,COCCCOc1cc(F)c(-c2c(Cl)nc(C#N)nc2NC(C)C(C)C)c(F)c1 (stereo not drawn) [Example 36],59 nM
22,CC(Nc1nc(C#N)nc(Cl)c1-c1c(F)cc(OCCCCl)cc1F)C(C)(C)C (stereo not drawn) [Example 37],280 nM
23,CC(C)C(C)Nc1nc(C#N)nc(Cl)c1-c1c(F)cc(OCCCCl)cc1F (stereo not drawn) [Example 38],330 nM
24,CNCCCOc1cc(F)c(-c2c(Cl)nc(C(=O)c3ccc(C)cc3)nc2N2CCCCCC2)c(F)c1 [Example 39],580 nM
